Several values for one entry are separate records, joined by “and”; a condition that tells them apart may be missing. Identical values can stand only once. Like-named read-outs stand apart in the source and are kept apart here.
Tests used:
[1] = target: AChE isolated from electric eel (EeAChE) (Electrophorus electricus, UniProt O42275); assay: biochemical; details: for IC50: mean ± SD, n = three independent experiments, ATCh 40 µM; for Selectivity BuChE/AChE: SI = ratio of IC50 for BuChE/IC50 for AChE, >1 means stronger inhibition of AChE
Chain of AChE isolated from electric eel (EeAChE) (O42275 24-633): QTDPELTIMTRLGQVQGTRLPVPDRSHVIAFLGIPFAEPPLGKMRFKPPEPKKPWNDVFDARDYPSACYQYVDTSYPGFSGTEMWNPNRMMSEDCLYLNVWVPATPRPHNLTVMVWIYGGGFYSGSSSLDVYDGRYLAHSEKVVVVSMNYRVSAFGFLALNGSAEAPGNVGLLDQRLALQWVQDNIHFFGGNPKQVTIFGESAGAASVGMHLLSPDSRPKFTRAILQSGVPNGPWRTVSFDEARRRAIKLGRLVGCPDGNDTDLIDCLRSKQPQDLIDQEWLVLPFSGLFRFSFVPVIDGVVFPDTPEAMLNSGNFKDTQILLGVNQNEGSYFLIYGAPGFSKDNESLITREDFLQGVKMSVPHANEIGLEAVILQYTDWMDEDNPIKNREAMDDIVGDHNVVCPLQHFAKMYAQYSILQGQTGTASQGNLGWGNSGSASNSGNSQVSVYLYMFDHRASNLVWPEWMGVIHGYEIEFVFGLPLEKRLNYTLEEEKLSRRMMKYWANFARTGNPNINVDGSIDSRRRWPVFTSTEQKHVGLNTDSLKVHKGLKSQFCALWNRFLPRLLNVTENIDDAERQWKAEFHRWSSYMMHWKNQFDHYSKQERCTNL

[2] = target: BuChE obtained from equine serum (EqBuChE) (Equus caballus, UniProt P81908); assay: biochemical; format: biochemical; details: for IC50: mean ± SD, n = three independent experiments, BTCh 40 µM; for fold less active against BuChE than 2d: compared with 2-chlorobenzylidene analogue 2d
Chain of BuChE obtained from equine serum (EqBuChE) (P81908 whole entry): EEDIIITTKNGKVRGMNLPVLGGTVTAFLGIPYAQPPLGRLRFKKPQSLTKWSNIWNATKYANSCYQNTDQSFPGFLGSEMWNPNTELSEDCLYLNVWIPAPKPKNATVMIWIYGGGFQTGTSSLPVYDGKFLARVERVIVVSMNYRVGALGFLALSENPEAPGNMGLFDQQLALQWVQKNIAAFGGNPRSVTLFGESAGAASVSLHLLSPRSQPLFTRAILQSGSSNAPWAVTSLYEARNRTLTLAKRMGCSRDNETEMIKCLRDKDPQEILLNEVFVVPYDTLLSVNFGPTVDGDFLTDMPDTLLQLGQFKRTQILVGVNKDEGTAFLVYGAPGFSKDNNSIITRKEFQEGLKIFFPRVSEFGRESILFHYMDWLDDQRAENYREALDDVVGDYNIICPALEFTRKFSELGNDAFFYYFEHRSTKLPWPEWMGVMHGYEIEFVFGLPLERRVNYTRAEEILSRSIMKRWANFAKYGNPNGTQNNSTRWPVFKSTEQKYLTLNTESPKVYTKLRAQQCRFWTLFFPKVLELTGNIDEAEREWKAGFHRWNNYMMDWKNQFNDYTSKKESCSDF

HepG2 cells = details: cited from earlier work
eeAChE = eeAChE (Electrophorus electricus, UniProt O42275); assay: Type of inhibition, Lineweaver–Burk plot and nonlinear regression; format: biochemical
Chain of eeAChE (O42275 24-633): as the sequence (O42275 24-633) above
Protocol: The type of inhibition could be distinguished using a Lineweaver–Burk plot and corresponding comparison of two kinetic parameters: Michaelis constant (KM) and maximum velocity (Vm) of uninhibited and inhibited reaction. […].
. The dependence absorbance vs. time was observed and the reaction rate was calculated. All measurements were carried out in duplicate and the average values of reaction rate were used for the construction of the Lineweaver–Burk plot. Furthermore, the dependencies vs. concentration of ATCh in absence and presence of inhibitor 2l were analyzed by nonlinear regression using GraphPad Prism 9.0.1 for Windows (GraphPad Software, San Diego, CA, USA, www.graphpad.com). From obtained equations of regression curves in the Lineweaver–Burk plot, the values of Michaelis constant (KM) and maximum velocity (Vm) were calculated. […]. Based on all obtained results, the type of inhibition was identified.

[3] = nonlinear regression, mixed model inhibition

Row | Compound | IC50 [1] [µM] | IC50 ([2]; read-out: IC50 BuChE) | IC50 (HepG2 cells) [µM] | Selectivity BuChE/AChE [1] | IC50 ([2]; IC50 BuChE) [µM] | fold less active against BuChE than 2d [2] | Type of inhibition (eeAChE; Lineweaver–Burk plot, KM and Vm, ATCh 20–80 µM, inhibitor 10–40 µM) | Ki (eeAChE; [3]) [µM] | alpha (eeAChE; [3]) | improved activity against BuChE ([2]; fold, 2k vs. 2o) [×]
1 | O=C(N/N=C/c1ccccc1)c1ccc(C(F)(F)F)cc1 [2a] | 75.9 ± 1.6 | 651 ± 31.5 µM | > 100 |  |  |  |  |  |  | 
2 | O=C(N/N=C/c1ccc(Cl)cc1)c1ccc(C(F)(F)F)cc1 [2b] | 88.5 ± 1.4 | 254 ± 3.3 µM | > 100 | 2.9 |  |  |  |  |  | 
3 | O=C(N/N=C/c1cccc(Cl)c1)c1ccc(C(F)(F)F)cc1 [2c] | 77.1 ± 0.03 | 261 ± 40.7 µM | > 100 | 3.4 |  |  |  |  |  | 
4 | O=C(N/N=C/c1ccccc1Cl)c1ccc(C(F)(F)F)cc1 [2d] | 128 ± 10 |  | > 100 | 0.5 | 63.6 ± 0.9 |  |  |  |  | 
5 | O=C(N/N=C/c1ccc(O)cc1)c1ccc(C(F)(F)F)cc1 [2e] | 102 ± 3.8 | 229 ± 14.5 µM | > 100 | 2.3 |  |  |  |  |  | 
6 | O=C(N/N=C/c1cccc(O)c1)c1ccc(C(F)(F)F)cc1 [2f] | 70.4 ± 2.8 | 250 ± 7.5 µM | > 100 | 3.5 |  |  |  |  |  | 
7 | O=C(N/N=C/c1ccccc1O)c1ccc(C(F)(F)F)cc1 [2g] | 47.4 ± 1.8 | 881.1 ± 8 µM | > 100 | 18.6 |  |  |  |  |  | 
8 | O=C(N/N=C/c1cc(Cl)ccc1O)c1ccc(C(F)(F)F)cc1 [2h] | 138 ± 3 | 287 ± 12.6 µM | > 100 | 2.1 |  |  |  |  |  | 
9 | Cc1ccc(/C=N/NC(=O)c2ccc(C(F)(F)F)cc2)cc1 [2i] | 91.4 ± 6.2 | 253 ± 9.6 µM | > 100 | 2.8 |  |  |  |  |  | 
10 | COc1ccc(/C=N/NC(=O)c2ccc(C(F)(F)F)cc2)cc1 [2j] | 109 ± 2.2 | 279 ± 2.9 µM | > 100 | 2.6 |  |  |  |  |  | 
11 | O=C(N/N=C/c1ccc(Br)cc1)c1ccc(C(F)(F)F)cc1 [2k] | 62.1 ± 0.02 | 342 ± 11.3 µM | > 100 | 5.5 |  | approximately 3 fold |  |  |  | 
12 | O=C(NN=Cc1ccc(C(F)(F)F)cc1)c1ccc(C(F)(F)F)cc1 [2l, 4-(Trifluoromethyl)-N’-[4-(trifluoromethyl)benzylidene]benzohydrazide] | 46.8 ± 2.1 | 175 ± 8.3 µM | > 100 | 3.7 |  | approximately 3 fold | mixed type of inhibition | 54.6 | 1.28 | 
13 | O=C(N/N=C/c1ccc([N+](=O)[O-])cc1)c1ccc(C(F)(F)F)cc1 [2m] | 60 ± 0.4 | 190.6 ± 1.1 µM | > 100 | 3.2 |  |  |  |  |  | 
14 | O=C(NN=Cc1cccc(Br)c1)c1ccc(C(F)(F)F)cc1 [2n, N’-(3-Bromobenzylidene)-4-(trifluoromethyl)benzohydrazide] | 96.9 ± 1.3 | 166.3 ± 0.8 µM |  | 1.7 |  |  |  |  |  | 
15 | O=C(NN=Cc1ccccc1Br)c1ccc(C(F)(F)F)cc1 [2o, N’-(2-Bromobenzylidene)-4-(trifluoromethyl)benzohydrazide] | 62.6 ± 3.2 | 54.2 ± 0.1 µM |  | 0.9 |  |  |  |  |  | 6.3
16 | O=C(NN=Cc1cccc(C(F)(F)F)c1)c1ccc(C(F)(F)F)cc1 [2p, 4-(Trifluoromethyl)-N’-[3-(trifluoromethyl)benzylidene]benzohydrazide] | 49.9 ± 1.4 | 63.6 ± 2.8 µM |  | 1.3 |  |  |  |  |  | 
17 | O=C(NN=Cc1ccccc1C(F)(F)F)c1ccc(C(F)(F)F)cc1 [2q, 4-(Trifluoromethyl)-N’-[2-(trifluoromethyl)benzylidene]benzohydrazide] | 50 ± 1.6 | 19.1 ± 0.5 µM |  | 0.4 |  |  |  |  |  | 
18 | O=C(NN=Cc1cccc([N+](=O)[O-])c1)c1ccc(C(F)(F)F)cc1 [2r, N’-(3-Nitrobenzylidene)-4-(trifluoromethyl)benzohydrazide] | 81.3 ± 2.6 | 133 ± 10.2 µM |  | 1.6 |  |  |  |  |  | 
19 | O=C(NN=Cc1ccccc1[N+](=O)[O-])c1ccc(C(F)(F)F)cc1 [2s, N’-(2-Nitrobenzylidene)-4-(trifluoromethyl)benzohydrazide] | 59.7 ± 5.8 | 93.1 ± 4.9 µM |  | 1.6 |  |  |  |  |  | 
20 | O=C(NN=Cc1ccc(C(F)(F)F)cc1)c1ccccc1 [2t, N’-[4-(Trifluoromethyl)benzylidene]benzohydrazide] | 62.9 ± 0.8 | 189.8 ± 1.7 µM |  | 3.0 |  |  |  |  |  | 
21 | Cc1ccc(C(=O)NN=Cc2ccc(C(F)(F)F)cc2)cc1 [2u, 4-Methyl-N’-[4-(trifluoromethyl)benzylidene]benzohydrazide] | 75.3 ± 1.5 | 245 ± 7 µM |  | 3.3 |  |  |  |  |  | 
22 | CC(C)=NNC(=O)c1ccc(C(F)(F)F)cc1 [3a] | 69.7 ± 5.2 | 424 µM | > 100 | 6.1 |  |  |  |  |  | 
23 | O=C(NN=C1CCCC1)c1ccc(C(F)(F)F)cc1 [3b] | 69.2 ± 1 | 200 ± 13.2 µM | > 100 | 2.9 |  |  |  |  |  | 
24 | O=C(NN=C1CCCCC1)c1ccc(C(F)(F)F)cc1 [3c] | 61.2 ± 1.3 | 74.7 ± 2.7 µM | > 100 | 1.2 |  |  |  |  |  | 
25 | CC12CCC(CC1=NNC(=O)c1ccc(C(F)(F)F)cc1)C2(C)C (centres unmarked) [3d] | 59.3 ± 1.8 | 57 µM and 57.2 µM | > 100 | 1.0 |  |  |  |  |  | 
26 | NNC(=O)c1ccc(C(F)(F)F)cc1 [compound 1, 4-(Trifluoromethyl)benzohydrazide] |  |  | > 100 |  |  |  |  |  |  | 
